Key:
[1] = test system: HeLa human cervical carcinoma cell line; test: In vitro antitumor activity assay (SRB), HeLa; assay type: cell-based; details: read-out: IC50, inhibitory activity on cell proliferation of HeLa cell line
From the text: (§1) HeLa human cervical carcinoma cell line, A-549 human non-small cell lung carcinoma cell line, NCI-H2228 human lung carcinoma cell line, NCI-H460 human lung carcinoma cell line, MDA-MB-231 human breast carcinoma cell line, MCF-7 human breast carcinoma cell line, Bel-7402 human hepatic carcinoma cell line, Hep3B human hepatic carcinoma cell line, QGY-7703 human hepatic carcinoma cell line, MV-4-11 human leukemic cell line, DAUDI human leukemic cell line, Jurkat human leukemic cell line, A498 renal carcinoma cell line, LoVo human colon carcinoma cell line, HCT1116 human colon carcinoma cell line, A431 human skin carcinoma cell line, PANC-1 human pancreatic carcinoma cell line, U87-MG human brain carcinoma cell line, SH-SY5Y human brain carcinoma cell line, RPMI-8226 human bone carcinoma cell line, HT1080 human fibrosarcoma cell line, PC-3 human prostatic carcinoma cell line, AGS human gastric adenocarcinoma cell line, and BGC-823 human gastric adenocarcinoma cell line were purchased from the Cell Bank of the Chinese Academy of Sciences.
(§2) The positive control is bufalin (formulated according to the common method), its purity is 98% or more by HPLC-UV and its structure is identified by NMR. The compounds to be tested and the positive control were diluted with normal saline with a concentration gradient of 10^−4 M, 10^−5 M, 10^−6 M, 10^−7 M and 10^−8 M.
(§3) According to cell growth rate, tumor cells in the log phase of growth were seeded into 96-well culture plates at 100 μL per well, and allowed to attach for 24 hours, followed by addition of a test compound or positive control at 10 μL per well. For each concentration, the test was carried out in triplicate wells. Solvent control wells with addition of normal saline into cell culture and a blank well containing only cell culture medium but without cells for zeroing were also included. The tumor cells were incubated for 72 hours at 37° C. under 5% CO2, and then the culture medium (RPMI-1640) was removed. The cells were fixed with 10% cool TCA by incubating for 1 h at 4° C., washed with distilled water for 5 times, and dried naturally in the air. A solution of SRB (Sigma) (4 mg/mL) in 1% glacial acetic acid was added at 100 μL per well, and the cells were stained for 15 minutes at room temperature, and the supernatant was discarded. The plates were washed for 5 times with 1% acetic acid, and dried in air. Finally, Tris solution was added at 150 μL per well, and the absorbance (A) was measured at a wavelength of 515 nm using a microplate reader. The growth inhibition on tumor cell proliferation was calculated according to the following equation:
(§4) Growth Inhibition (%)=[(Absorbance of negative control−Absorbance of blank)−(Absorbance of sample−Absorbance of blank)]/(Absorbance of negative control−Absorbance of blank)×100%
(§5) Drug concentration: 10 μM, 1 μM, 0.1 μM, 10 nM, 1 nM, 0.1 nM.
(§6) IC50 was fitted by GraphPad Prism 4.

[2] = test system: A-549 human non-small cell lung carcinoma cell line; test: In vitro antitumor activity assay (SRB), A549; assay type: cell-based; details: Homo sapiens; A549, Table 2; read-out: IC50, inhibition of cell proliferation, A549
From the text: as §1, §2, §3, §4, §5, §6

[3] = test system: MCF-7 human breast carcinoma cell line; test: In vitro antitumor activity assay (SRB), MCF-7; assay type: cell-based; details: Homo sapiens, MCF7; MCF-7, Table 2; read-out: IC50, inhibition of cell proliferation, MCF-7
From the text: as §1, §2, §3, §4, §5, §6

[4] = test system: PC-3 human prostatic carcinoma cell line; test: In vitro antitumor activity assay (SRB), PC-3; assay type: cell-based; details: Homo sapiens, Prostatic carcinoma cell; PC-3, Table 2; read-out: IC50, inhibition of cell proliferation, PC-3
From the text: as §1, §2, §3, §4, §5, §6

[5] = test system: LoVo human colon carcinoma cell line; test: In vitro antitumor activity assay (SRB), LoVo; assay type: cell-based; details: Table 2, read-out: IC50, inhibition of cell proliferation, LoVo
From the text: as §1, §2, §3, §4, §5, §6

[6] = test system: human non-small cell lung carcinoma A549 xenograft; test: In vivo therapeutic effect against A549 xenograft in nude mice; details: A549 xenograft, 5 mg/kg iv QW, after 21 days
Experimental: This experiment is to evaluate the in vivo therapeutic effects of compounds bufalin, II1D-06.HCl, II1E-01.HCl and II1B-02.HCl against human-derived lung carcinoma A549 cell xenograft in nude mice.
Solvent control: 4% DMSO & 2% Tween-80 & 5% PEG-400 solution in normal saline
Compounds to be tested: bufalin, II1B-02.HCl, II1E-01.HCl, II1D-06.HCl
Formulating method: the compound was dissolved with DMSO into a stock solution, which was then diluted into an injection with a final DMSO concentration of 4%.
Positive control: Rapamycin Formulating method: it was formulated into an injection with a final DMSO concentration of 4%.
After the tumor size reaches about 200 mm^3, the mice bearing the tumor were grouped randomly into 8 groups according to the tumor size, including the groups of solvent control, positive control rapamycin 5 mg/kg, II1E-01.HCl 2 mg/kg, II1E-01.HCl 4 mg/kg, II1E-01.HCl 6 mg/kg, II1B-02.HCl 4 mg/kg, II1D-06.HCl 4 mg/kg, bufalin 1.6 mg/kg, wherein the dosage selection is based on that the maximum tolerable dosage is 1.6 mg/kg for bufalin and 6 mg/kg for II1E-01.HCl. Rapamycin was administered intravenously once a week (QW) and the other groups were administered intraperitoneally once every other day (QOD). The tumor was weighted after 21 days to calculate the inhibition rate. The equation for calculating inhibition rate (IR) is IR=(WC−WT)/WC×100%, wherein, WC represents the tumor weight of the control group, and WT represents the tumor weight of the treating group.

[7] = test system: human hepatic carcinoma HepG2 xenograft; test: Therapeutic effect against HepG2 xenograft in nude mice; assay type: in vivo, Balb/c nude mice; details: 10 mg/kg iv, QW × 14 d; for Inhibition Rate (%): 10 mg/kg
Experimental: (§7) This experiment is to investigate the in vivo inhibitory effect of II1E-01.HCl on growth of human-derived hepatic carcinoma HepG2 cell, human-derived breast carcinoma MDA-MB-231 cell, human-derived lung carcinoma H460 cell, human-derived colon carcinoma HCT-116 cell, human-derived […] MV-4-11 cell xenografts in nude mice.
(§8) Formulation of solvent control (5% anhydrous ethanol & 5% aqueous glucose solution): 2.5 mL anhydrous ethanol was added into a 50 mL tube, followed by addition of 47.5 mL 5% glucose solution for injection followed by shaking, and stored at room temperature before use.
(§9) Formulation of the preparations of the compounds to be tested: formulations with concentrations of 0.4 mg/mL and 0.6 mg/mL were prepared respectively. An appropriate amount of II1E-01.HCl was weighted and put into a 50 mL tube, followed by addition of corresponding volume of solvent to get the desired concentration and mixed using a vortex mixer. After the solid was dissolved completely, the solution was subpackaged into 4 mL vials and stored at refrigerated condition (2-8° C.) until use.
(§10) Experimental animals: Balb/c nude mice (male, six weeks old).
HepG2 cells were in vitro cultured to be proliferated. The cells in the log phase of growth were collected and resuspended in DMEM serum-free medium, and then implanted subcutaneously into the axilla of the right forelimb of nude mice. After 11 days, the tumor size reached about 250 mm^3. The mice bearing the tumor were grouped according to the tumor size into 6 groups, including the group of solvent control, groups of positive controls (Rapamycin 10 mg/kg and Vinorelbine 8 mg/kg), and groups of low (2 mg/kg), middle (4 mg/kg) and high (6 mg/kg) dosages of the testing compound II1E-01.HCl. Each group was administered intravenously at tail. In the solvent control group, the solvent control solution was administered intravenously once every other day (QOD). In the low, middle and high dosage groups of II1E-01.HCl, II1E-01.HCl was administered intravenously once every other day (QOD). In the positive control groups, Rapamycin 10 mg/kg and Vinorelbine 8 mg/kg were administered once a week (QW). The animals were given the drugs for two weeks. In the two week time period, the growth of tumor and the body weight of the mice were observed.
Two weeks after administering (the 25th day after the implantation), the tumor weight and inhibition rate were calculated, and results are listed in Table 5.

[8] = test system: human-derived leukaemia MV-4-11 xenograft; test: Therapeutic effect against MV-4-11 xenograft in nude mice; assay type: in vivo, Balb/c nude mice
Experimental: as §7, §8, §9, §10
MV-4-11 cells were in vitro cultured to be proliferated. The cells in the log phase of growth were collected and resuspended in IMDM serum-free medium, and then implanted subcutaneously into the axilla of the right forelimb of nude mice. After 37 days, the tumor size reached about 270 mm^3. The mice bearing the tumor were grouped by randomized block method according to the tumor size into 3 groups, which contain 6 mice in each group and include the group of solvent control, group of positive control (Sunitinib 40 mg/kg), and group of the testing compound II1E-01.HCl (4 mg/kg QOD). In the positive control group, sunitinib was administered intragastrically once daily (QD). In the group of II1E-01.HCl, II1E-01.HCl was administered intravenously at tail once every other day (QOD). The animals were given the drugs for 21 days, during which the growth of tumor and the body weight of the mice were observed.
After continuously administering for 21 days (the 58th day after the implantation), the tumor weight and inhibition rate were calculated, and results are listed in Table 9. […] In the group of the testing compound II1E-01.HCl (4 mg/kg QOD), the tumor also completely disappeared at 14th day after administration, and the inhibition rate was 100.00% (P<0.01) at the end of the experiment.

Row | Compound | IC50 [1] [nM] | IC50 [2] [nM] | IC50 [3] [nM] | IC50 [4] [nM] | IC50 [5] [nM] | Inhibition Rate (%) [6] [%] | Tumor Weight(g) Mean ± SE [6] [g] | Tumor Weight(g) Mean ± SE [7] [g] | Inhibition Rate (%) [7] [%] | Inhibition Rate (%) ([7]; listed as Rapamycin) | day after administration at which the tumor completely disappeared ([8]; 40 mg/kg ig QD) [days] | Tumor Weight(g) Mean ± SE ([8]; 40 mg/kg ig, QD × 21 d) [g] | Inhibition Rate (%) ([8]; 40 mg/kg ig, QD × 21 d, 40 mg/kg)
1 | CCN(CC)CCNC(=O)O[C@H]1CC[C@@]2(C)[C@H](CC[C@@H]3[C@@H]2CC[C@]2(C)[C@@H](c4ccc(=O)oc4)CC[C@]32O)C1 [II1B-02] | 3.73 | 0.39 ± 0.08 | 18.8 ± 2.68 | 20.1 ± 4.08 | 15.7 ± 1.67 | – | – | – | – | – | – | – | –
2 | C[C@]12CC[C@H](OC(=O)N3CCCNCC3)C[C@H]1CC[C@@H]1[C@@H]2CC[C@]2(C)[C@@H](c3ccc(=O)oc3)CC[C@]12O [II1D-06] | 0.45 | 0.87 ± 0.02 | 2.13 ± 0.29 | 1.25 ± 0.46 | 0.58 ± 0.29 | – | – | – | – | – | – | – | –
3 | CO[C@H]1C[C@@H]2CC[C@@H](C)[C@@](O)(O2)C(=O)C(=O)N2CCCC[C@H]2C(=O)O[C@H]([C@H](C)C[C@@H]2CC[C@@H](O)[C@H](OC)C2)CC(=O)[C@H](C)/C=C(\C)[C@@H](O)[C@@H](OC)C(=O)[C@H](C)C[C@H](C)/C=C/C=C/C=C/1C [rapamycin, Rapamycin, reference compound] | – | – | – | – | – | 58.86 | 0.6925 ± 0.0652 | 0.4806 ± 0.0269 | 37.23 | 37.23 | – | – | –
4 | CN(C)CCN(C)C(=O)O[C@H]1CC[C@@]2(C)[C@H](CC[C@@H]3[C@@H]2CC[C@]2(C)[C@@H](c4ccc(=O)oc4)CC[C@]32O)C1 [II1B-03] | 1.58 | 2.81 ± 0.43 | 10.6 ± 3.04 | 27.3 ± 2.46 | 13.4 ± 3.37 | – | – | – | – | – | – | – | –
5 | C[C@]12CC[C@H](OC(=O)NCC3CCCCN3)C[C@H]1CC[C@@H]1[C@@H]2CC[C@]2(C)[C@@H](c3ccc(=O)oc3)CC[C@]12O (stereo partly drawn) [II1E-03] | 0.8 | 0.58 ± 0.17 | 31 ± 3.07 | 14.8 ± 1.12 | 23.4 ± 3.68 | – | – | – | – | – | – | – | –
6 | CCN(CC)CCNC(=O)c1c(C)[nH]c(/C=C2\C(=O)Nc3ccc(F)cc32)c1C [Sunitinib, reference compound] | – | – | – | – | – | – | – | – | – | – | 10 | 0.0000 ± 0.0000 | 100.00
7 | CCNCCNC(=O)O[C@H]1CC[C@@]2(C)[C@H](CC[C@@H]3[C@@H]2CC[C@]2(C)[C@@H](c4ccc(=O)oc4)CC[C@]32O)C1 [II1B-05] | 1.65 | 2.83 ± 0.9 | 7.98 ± 1.9 | 12.6 ± 0.86 | 14.4 ± 0.76 | – | – | – | – | – | – | – | –
